From patent publication US20190038703A1, “METHODS OF TREATING ACUTE MYELOID LEUKEMIA WITH A FLT3 MUTATION” (Biokine Therapeutics Ltd., priority 2013, published 2019)
Where a SMILES comes first, the peptide text is derived from it. Bridges are numbered along the chain shown (N, C = ends). [ ]: non-standard residue; d: D form. The star is where a group is joined. 2Nal = N[C@@H](Cc1ccc2ccccc2c1)C(=O)O; Benzoyl(4-F) = O=C(c1ccc(F)cc1)*; Cit = NC(=O)NCCC[C@H](N)C(=O)O

Tests used:
[1] = test system: human primary AML cells with FLT3-ITD; test: Survival assay (PI staining, FACS), human primary AML cells with FLT3-ITD; format: cell-based; conditions: 48 hr; for decrease of the number of viable cells: human
Source text: (§1) Human primary AML cells with FLT3-ITD mutation and with FLT3-WT were obtained from AML patients after getting their consent in accordance with regulations of Chaim Sheba Medical Center (Tel-Aviv, Israel). Peripheral blood mononuclear cells (PBMCs) were separated from blood samples by density-gradient centrifugation on Ficoll-Paque (Pharmacia Biotech, Uppsala, Sweden). The cells were suspended in […] (FCS; Biological Industries, Kibbutz Beit Haemek, Israel), supplement with 10% DMSO then stored in liquid nitrogen. Prior to commencing a toxicity assay the isolated cells were thawed, re-suspended in Roswell Park Memorial Institute medium (RPMI 1640; Gibco BRL life technologies) supplemented with 20% FCS and incubated for 4 hr at 37° C. Isolated cells with FLT3-ITD mutation or with FLT3 wild type (FLT3-WT) were identified by using a procedure essentially as described by Levis and Small (Leukemia 17: 1738-1752, 2003). […] Following incubation the cells were stained with propidium iodide (PI; Sigma, St. Louis, Mo.; 1:1000) and the incidence of dead cells (% PI-positive) and the density of viable cells (PI-negative) were determined by FACScalibur using the procedure described by Beider and Begin (Exp Hematol 39: 282-92, 2011).

[2] = test system: MV4-11 cells engrafted in NOD SCID gamma (NSG) mice; test: AML model of NSG mice engrafted with MV4-11 cells; format: in vivo, mouse; conditions: AC220 10 mg/Kg oral, daily for 7 days; for AML cells in the BM / percentage of alive AML blasts in the blood / level of AML cells in the spleen: BL-8040 400 ug/mouse SC; for AML cells in the BM: control 12.6%, FIGS. 11A-11B; for percentage of alive AML blasts in the blood: control 13.5%, FIG. 9; for level of AML cells in the spleen: control 21%, FIGS. 12A-12B
Protocol: In the in-vivo study an AML model of NOD SCID gamma (NSG) mice engrafted with MV4-11 cells was used. […] The survival and apoptosis of AML cells were examined in the blood, BM and spleen of engrafted mice.
Female mice at the age of 7-9 weeks day (−1) 26/1/14: mice were irradiated with 200 rad 24 hr before cells injection day 0-27/1/14: mice were IV injected with 10×10^6 of MV4-11 cells in total volume of 200 ul PBS.

[3] = test system: malignant cells of hematopoietic origin including AML; conditions: cited from earlier work
[4] = test system: human AML MV4-11 cells (FLT3-ITD); test: Example 2 in-vitro viability and apoptosis by FACS; format: cell-based; conditions: BL-8040 20 μM, 48 hrs
Protocol: Methods: The human AML MV4-11 cells (FLT3-ITD) was used. Cells were in-vitro incubated for 48 hrs in the presence of BL-8040 (20 μM), AC220 (50 nM) or their combination. The level of viable cells, percentage of apoptosis was evaluated by FACS.

[5] = test system: human primary AML cells with wild-type FLT3; test: Survival assay (PI staining, FACS), human primary AML cells with FLT3-WT; format: cell-based; conditions: 48 hr; for decrease of the number of viable cells: human
Source text: as §1

human AML xenografts = conditions: subcutaneous injections; Beider et al., Exp. Hematol. 2011; cited from earlier work

## N=C(N)NCCC[C@H](NC(=O)[C@@H]1CSSC[C@H](NC(=O)[C@H](Cc2ccc3ccccc3c2)NC(=O)[C@H](CCCNC(=N)N)NC(=O)[C@H](CCCNC(=N)N)NC(=O)c2ccc(F)cc2)C(=O)N[C@@H](Cc2ccc(O)cc2)C(=O)N[C@@H](CCCNC(N)=O)C(=O)N[C@@H](CCCCN)C(=O)N[C@H](CCCCN)C(=O)N2CCC[C@H]2C(=O)N[C@@H](Cc2ccc(O)cc2)C(=O)N[C@@H](CCCNC(=N)N)C(=O)N[C@@H](CCCNC(N)=O)C(=O)N1)C(N)=O [BL-8040, 4F-benzoyl-Arg-Arg-Nal-Cys-Tyr-Cit-Lys-DLys-Pro-Tyr-Arg-Cit-Cys-Arg-NH2] ({Benzoyl(4-F)}-RR[2Nal]CY[Cit]K[dK]PYR[Cit]CR-NH2; disulfide 4-13)
[1]; BL-8040 8 μM, FIG. 1A
  increase of the percentage of dead cells: 79.3%
[1]; BL-8040 20 μM, FIG. 7A
  increase of the percentage of dead cells: 116.6%
[1]; 8 μM
  decrease of the number of viable cells: 28.8%
[1]; 20 μM
  decrease of the number of viable cells: 50.0%
[2]
  AML cells in the BM: 2.6%
  percentage of alive AML blasts in the blood: 1.7%
  level of AML cells in the spleen: 0.4%
[3]
  cytotoxicity toward malignant cells of hematopoietic origin: CXCR4-dependent preferential cytotoxicity
[4]
  inhibition of cell growth: 35%
[4]; AC220 50 nM or their combination
  cell death: 40%
[5]; BL-8040 8 μM, FIG. 2A
  increase of the percentage of dead cells: 13.7%
[5]; BL-8040 20 μM, FIG. 8A
  increase of the percentage of dead cells: 56.3%
[5]; 8 μM
  decrease of the number of viable cells: 16.1%
[5]; 20 μM
  decrease of the number of viable cells: 34.4%
Human AML xenografts
  growth of human AML xenografts: significantly reduced the growth

## CC(C)(C)c1cc(NC(=O)Nc2ccc(-c3cn4c(n3)sc3cc(OCCN5CCOCC5)ccc34)cc2)no1 [AC220, Quizartinib]
[2]; FIG. 10
  reduction of total mouse WBC compared to the control: 65%
[2]
  AML cells in the BM: 0.05%
  percentage of alive AML blasts in the blood: 0.1%
  level of AML cells in the spleen: 0.09%
